By IC50 is commonly meant the concentration at which inhibition is half-maximal.

Consider 42 compounds from patent US20260007684A1, “AMIDE DERIVATIVES FOR INHIBITING NLRP3 AND USES THEREOF” (Ventus Therapeutics U.S., Inc., priority 2023, published 2026).

The first experiment deals with human NLRP3 (Homo sapiens (Human), UniProt Q96P20). In words: Scintillation Proximity (SPA) NLRP3 Assay: displacement of 3H-MCC950. It counts as binding. Conditions: SPA IC50, displacement of 3H-MCC950.
Sequence of human NLRP3 (Q96P20 whole entry): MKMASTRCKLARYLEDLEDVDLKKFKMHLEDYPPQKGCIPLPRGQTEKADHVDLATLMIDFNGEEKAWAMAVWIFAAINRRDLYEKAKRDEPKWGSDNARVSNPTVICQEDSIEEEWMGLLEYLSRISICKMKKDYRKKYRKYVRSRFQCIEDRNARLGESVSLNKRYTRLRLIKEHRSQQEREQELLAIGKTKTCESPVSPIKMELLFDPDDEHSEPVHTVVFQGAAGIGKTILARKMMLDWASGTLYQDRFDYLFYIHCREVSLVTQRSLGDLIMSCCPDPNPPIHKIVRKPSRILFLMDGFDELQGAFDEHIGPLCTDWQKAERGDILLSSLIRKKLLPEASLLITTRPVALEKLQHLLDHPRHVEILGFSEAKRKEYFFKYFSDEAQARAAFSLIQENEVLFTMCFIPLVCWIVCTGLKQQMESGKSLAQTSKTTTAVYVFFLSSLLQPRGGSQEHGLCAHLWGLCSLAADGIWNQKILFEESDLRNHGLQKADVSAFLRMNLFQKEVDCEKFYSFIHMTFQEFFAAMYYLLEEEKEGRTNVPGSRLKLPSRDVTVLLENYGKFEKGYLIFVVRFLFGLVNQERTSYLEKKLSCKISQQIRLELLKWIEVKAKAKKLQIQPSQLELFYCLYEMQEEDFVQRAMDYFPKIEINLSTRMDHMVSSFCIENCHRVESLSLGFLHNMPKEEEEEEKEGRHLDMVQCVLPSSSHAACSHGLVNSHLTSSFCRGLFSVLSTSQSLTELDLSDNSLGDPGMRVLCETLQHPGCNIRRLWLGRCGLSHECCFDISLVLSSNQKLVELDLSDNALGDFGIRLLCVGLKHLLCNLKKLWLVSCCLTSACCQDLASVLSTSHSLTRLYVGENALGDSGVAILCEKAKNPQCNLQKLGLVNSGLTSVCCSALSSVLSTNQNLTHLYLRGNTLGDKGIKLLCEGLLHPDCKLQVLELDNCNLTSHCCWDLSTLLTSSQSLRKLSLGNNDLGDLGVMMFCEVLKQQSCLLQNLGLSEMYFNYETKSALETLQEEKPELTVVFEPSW
`O=C(N[C@@H]1CCC[C@H]2CC[C@@H]1N2c1nnn[nH]1)C1(c2ccc(C3CC3)cc2O)CC1` [93C*, N-((1S,2R,6S)-9-(1H-tetrazol-5-yl)-9-azabicyclo[4.2.1]nonan-2-yl)-1-(4-cyclopropyl-2-hydroxyphenyl)cyclopropane-1-carboxamide] displayed a 50% inhibitory concentration (IC50) of 10 to 50 µM.

The experiment is the same for the next values; noted with them: displacement of 3H-MCC950; read-out: SPA IC50.
In the case of `C[C@@H]1CCN(c2nnn[nH]2)C[C@@H](NC(=O)C2(c3ccc(Cl)nc3O)CC2)C1` (single isomer, unassigned) [100B*], the IC50 lay within 10 to 50 µM.

In the case of `O=C(N[C@H]1CCC[C@@H]2CC[C@H]1N2c1nnn[nH]1)C1(c2ccc(C(F)(F)F)cc2O)CC1` [88B*, N-((1R,2S,6R)-9-(1H-tetrazol-5-yl)-9-azabicyclo[4.2.1]nonan-2-yl)-1-(2-hydroxy-4-(trifluoromethyl)phenyl)cyclopropane-1-carboxamide], the IC50 is under 1 µM. On the same count and under the same terms, the result for `C[C@@H]1CCN(c2nnn[nH]2)C[C@@H](NC(=O)C2(c3ccc(C4CC4)cc3)CC2)C1` (single isomer, unassigned) [2B*] reads 1 to 10 µM; that for `Cc1cc(C2(C(=O)N[C@H]3C[C@H](C)CCN(c4nnn[nH]4)C3)CC2)ccc1C(F)(F)F` (single isomer, unassigned) [6B*, N-(5-methyl-1-(1H-tetrazol-5-yl)azepan-3-yl)-1-(3-methyl-4-(trifluoromethyl)phenyl)cyclopropane-1-carboxamide], 50 to 100 µM. In the case of `CC(C)c1ccc(C2(C(=O)N[C@H]3C[C@H](C)CCN(c4nnn[nH]4)C3)CC2)c(O)c1` (single isomer, unassigned) [27B*, 1-(2-hydroxy-4-isopropylphenyl)-N-(5-methyl-1-(1H-tetrazol-5-yl)azepan-3-yl)cyclopropane-1-carboxamide], the IC50 lay in the range of 1 to 10 µM.

`Cc1ccc(C2(C(=O)N[C@@H]3C[C@@H](C)CCN(c4nnn[nH]4)C3)CC2)c(O)c1F` (single isomer, unassigned) [74C*]: the IC50 is 10 to 50 µM. With `C[C@@H]1CCN(c2nnn[nH]2)C[C@@H](NC(=O)C2(c3ccc(Br)cc3)CC2)C1` (single isomer, unassigned) [59B*], the IC50 lay in the range of 1 to 10 µM. Same read-out and setting: the result for `C[C@H]1CCN(c2nnn[nH]2)C[C@@H](NC(=O)C2(c3ccc(C(F)(F)F)cc3)CC2)C1` (single isomer, unassigned) [61D*] reads 10 to 50 µM. Still for that read-out and setting: the result for `C[C@@H]1CCN(c2nnn[nH]2)C[C@@H](NC(=O)C2(c3ccc(C(F)(F)F)cc3)CC2)C1` (single isomer, unassigned) [61C*] reads 50 to 100 µM; that for `C[C@H]1C[C@@H](NC(=O)C2(c3ccc(C4CC4(F)F)cc3)CC2)[C@@H]2CC[C@H]1N2c1nnn[nH]1` (single isomer, unassigned) [37C*], over 100 µM. Same read-out and setting: the result for `C[C@H]1CCN(c2nnn[nH]2)C[C@@H](NC(=O)C2(c3ccc(C4CC4)cc3)CC2)C1` (single isomer, unassigned) [2D*] reads 1 to 10 µM. Consider `C[C@H]1CCN(c2nnn[nH]2)C[C@H](NC(=O)C2(c3ccc(C4CC4)cc3)CC2)C1` (single isomer, unassigned) [2C*], for which the IC50 lay in the range of 10 to 50 µM. Still for that read-out and setting: the result for `C[C@H]1CCN(c2nnn[nH]2)C[C@H](NC(=O)C2(c3ccc(OC(F)(F)F)cc3O)CC2)C1` (single isomer, unassigned) [62C*] reads 1 to 10 µM; that for `C[C@H]1CCN(c2nnn[nH]2)C[C@H](NC(=O)C2(c3ccc(Cl)nc3O)CC2)C1` (single isomer, unassigned) [100C*], over 100 µM; that for `C[C@@H]1CC[C@@H](NC(=O)C2(c3ccc(Cl)cc3)CC2)CN(c2nnn[nH]2)C1` (single isomer, unassigned) [36C*, 1-(4-chlorophenyl)-N-(6-methyl-1-(1H-tetrazol-5-yl)azepan-3-yl)cyclopropane-1-carboxamide], over 100 µM. Turning to `C[C@@H]1CCN(c2nnn[nH]2)C[C@@H](NC(=O)C2(c3c(F)cc(Cl)cc3F)CC2)C1` (single isomer, unassigned) [72B*], the IC50 was 1 to 10 µM. Same read-out and setting: the result for `C[C@@H]1CCN(c2nnn[nH]2)C[C@@H]1NC(=O)C1(c2ccc(Cl)cc2)CC1` [Compound 49A, 1-(4-chlorophenyl)-N-[(3R,4R)-4-methy1-1-(1H-tetrazol-5-yl)-3-piperidyl]cyclopropanecarboxamide] reads over 100 µM. `Cc1ccc(C2(C(=O)N[C@H]3C[C@H](C)CCN(c4nnn[nH]4)C3)CC2)c(O)c1F` (single isomer, unassigned) [22B*, 1-(3-fluoro-2-hydroxy-4-methylphenyl)-N-(5-methyl-1-(1H-tetrazol-5-yl)azepan-3-yl)cyclopropane-1-carboxamide]: the IC50 is 1 to 10 µM.

Take `C[C@@H]1C[C@H](NC(=O)C2(c3ccc(C(F)(F)F)cc3F)CC2)[C@H]2CC[C@@H]1N2c1nnn[nH]1` [84B*, 1-(2-fluoro-4-(trifluoromethyl)phenyl)-N-((1R,2S,4R,5S)-4-methyl-8-(1H-tetrazol-5-yl)-8-azabicyclo[3.2.1]octan-2-yl)cyclopropane-1-carboxamide]: the IC50 was 10 to 50 µM. The same measure, in the same setting: the result for `C[C@@H]1CC[C@H](NC(=O)C2(c3ccc(C(F)(F)F)cc3O)CC2)CN(c2nnn[nH]2)C1` [89D*, 1-(2-hydroxy-4-(trifluoromethyl)phenyl)-N-((3S,6R)-6-methyl-1-(1H-tetrazol-5-yl)azepan-3-yl)cyclopropane-1-carboxamide] reads 1 to 10 µM; that for `Cc1ccc(C2(C(=O)N[C@@H]3C[C@@H](C)CCN(c4nnn[nH]4)C3)CC2)c(O)c1` (single isomer, unassigned) [67C*], 10 to 50 µM. `O=C(N[C@@H]1CN(c2nnn[nH]2)CCC(F)(F)C1)C1(c2ccc(Cl)cc2)CC1` (single isomer, unassigned) [53B*]: the 50% inhibitory concentration (IC50) is 50 to 100 µM.

Regarding `C[C@@H]1CCN(c2nnn[nH]2)C[C@@H](NC(=O)C2(c3ccc(C4CC4)c(F)c3O)CC2)C1` (single isomer, unassigned) [32B*, 1-(4-cyclopropyl-3-fluoro-2-hydroxyphenyl)-N-(5-methyl-1-(1H-tetrazol-5-yl)azepan-3-yl)cyclopropane-1-carboxamide], the IC50 fell in the range of 1 to 10 µM. As to `C[C@H]1CCN(c2nnn[nH]2)C[C@H](NC(=O)C2(c3ccc(SC(F)(F)F)cc3)CC2)C1` (single isomer, unassigned) [69C*], the IC50 was over 100 µM.

Regarding `O=C(N[C@H]1CN(c2nnn[nH]2)CC[C@@H]1F)C1(c2ccc(Cl)cc2)CC1` [Compound 50C, 1-(4-chlorophenyl)-N-[(3S,4S)-4-fluoro-1-(1H-tetrazol-5-yl)-3-piperidyl]cyclopropanecarboxamide], the IC50 was 10 to 50 µM. On the same count and under the same terms, the result for `C[C@@H]1CCN(c2nnn[nH]2)C[C@@H](NC(=O)C2(c3ccc(OC(F)(F)F)cc3)CC2)C1` (single isomer, unassigned) [57B*] reads 1 to 10 µM. The same measure, in the same setting: the result for `Cc1ccc(C2(C(=O)N[C@H]3C[C@H](C)CCN(c4nnn[nH]4)C3)CC2)c(O)c1F` (single isomer, unassigned) [74B*] reads 1 to 10 µM. Still for that read-out and setting: the result for `C[C@H]1CCN(c2nnn[nH]2)C[C@H](NC(=O)C2(c3c(F)cc(Cl)cc3F)CC2)C1` (single isomer, unassigned) [72C*] reads over 100 µM; that for `O=C(N[C@H]1CC[C@@H]2CC[C@H]1N2c1nnn[nH]1)C1(c2ccc(OC(F)F)cc2O)CC1` [77B*, N-((1R,2S,5R)-8-(1H-tetrazol-5-yl)-8-azabicyclo[3.2.1]octan-2-yl)-1-(4-(difluoromethoxy)-2-hydroxyphenyl)cyclopropane-1-carboxamide], 10 to 50 µM; that for `C[C@@H]1CCN(c2nnn[nH]2)C[C@@H](NC(=O)C2(c3ccc(OC(F)(F)F)c(F)c3O)CC2)C1` (single isomer, unassigned) [28B*, 1-(3-fluoro-2-hydroxy-4-(trifluoromethoxy)phenyl)-N-(5-methyl-1-(1H-tetrazol-5-yl)azepan-3-yl)cyclopropane-1-carboxamide], 1 to 10 µM. On to `C[C@H]1CCN(c2nnn[nH]2)C[C@@H](NC(=O)C2(c3ccc(SC(F)(F)F)cc3)CC2)C1` (single isomer, unassigned) [69D*], for which the IC50 is 10 to 50 µM. On the same count and under the same terms, the result for `C[C@H]1CCN(c2nnn[nH]2)C[C@H](NC(=O)C2(c3ccc(C(F)(F)F)cc3F)CC2)C1` (single isomer, unassigned) [68C*] reads over 100 µM. The same measure, in the same setting: the result for `C[C@H]1CCN(c2nnn[nH]2)C[C@H](NC(=O)C2(c3ccc(OC(F)F)cc3)CC2)C1` (single isomer, unassigned) [58C*] reads over 100 µM. Still for that read-out and setting: the result for `O=C(N[C@@H]1C[C@H](F)CN(c2nnn[nH]2)C1)C1(c2ccc(Cl)cc2)CC1` [Compound 44A, 1-(4-chlorophenyl)-N-[(3R,5S)-5-fluoro-1-(1H-tetrazol-5-yl)-3-piperidyl]cyclopropanecarboxamide] reads over 100 µM; that for `C[C@H]1CCN(c2nnn[nH]2)C[C@H](NC(=O)C2(c3ccc(Cl)cc3O)CC2)C1` (single isomer, unassigned) [60C*], 1 to 10 µM; that for `C[C@H]1CCN(c2nnn[nH]2)C[C@H](NC(=O)C2(c3ccc(Cl)c(F)c3)CC2)C1` (single isomer, unassigned) [65C*], 10 to 50 µM.

For the compound `C[C@H]1C[C@H](NC(=O)C2(c3ccc(SC(F)F)cc3)CC2)[C@@H]2CC[C@H]1N2c1nnn[nH]1` [85D*, 1-(4-((difluoromethyl)thio)phenyl)-N-((1S,2S,4S,5R)-4-methy1-8-(1H-tetrazol-5-yl)-8-azabicyclo[3.2.1]octan-2-yl)cyclopropane-1-carboxamide], the IC50 is over 100 µM.

With `C[C@H]1CCN(c2nnn[nH]2)C[C@H](NC(=O)C2(c3ccc(Cl)cc3F)CC2)C1` (single isomer, unassigned) [56C*], the IC50 was in the range of 50 to 100 µM.

On to `C[C@H]1CCN(c2nnn[nH]2)C[C@@H](NC(=O)C2(c3ccc(C(F)(F)F)c(OC(F)F)c3)CC2)C1` (single isomer, unassigned) [54D*], for which the IC50 was in the range of 10 to 50 µM. On the same count and under the same terms, the result for `C[C@@H]1CCN(c2nnn[nH]2)C[C@@H](NC(=O)C2(c3ccc(Cl)cc3Cl)CC2)C1` (single isomer, unassigned) [55B*] reads 10 to 50 µM; that for `C[C@@H]1CCN(c2nnn[nH]2)C[C@@H](NC(=O)C2(c3ccc(C(F)(F)F)c(F)c3)CC2)C1` (single isomer, unassigned) [66B*], 1 to 10 µM.
